Data published in a melting point compilation (Tetko et al.; mined from patent text by program, amines drawn as free bases though some values may be those of a salt).
Residues, ends and D or L forms follow the SMILES beside them. *: point of attachment. Cbz = O=C(OCc1ccccc1)*

SMILES	melting point [°C]
CCn1c(=O)c(C)cc2cnc(SC)nc21	84 to 86
Nc1cc(-c2nnc(CCc3cccc(C(F)(F)F)c3)o2)ccn1	161 to 163
C=C(C)c1ccc2occ(C#N)c(=O)c2c1	142 to 144
COc1ccc(C(O)c2ccc3cc(OC)ccc3c2)c(F)c1 (centres undefined)	68 to 69
CCCNC(=O)c1cnc2c(C)cccn2c1=O	138 to 140
CON(C)C(=O)c1ccc(-n2ccnc2)nc1	69 to 70
Cc1nc(CN)c2n1-c1ccc(Cl)cc1C(c1ccccc1)=NC2	217 to 219
O=C(O)c1ccc2oc(Cc3cccnc3)cc2c1	197 to 198
CCN(CC)C(=O)c1cc(O)c(O)c([N+](=O)[O-])c1	145 to 146
CCCCN(CCCC)CCCOc1ccc(C(=O)c2c(-c3ccccc3)cc3ccccn23)cc1	92 to 93.5
CCC(=O)Oc1c(OC)cc(C)c(C(=O)c2c(OC)ccc(Cl)c2C)c1OC	150 to 151
COC(=O)COc1ccc(C(C)=O)c2ccccc12	123 to 125
CC(C)c1[nH]n(-c2c(Cl)cncc2Cl)c2nc(Cc3ccc(CN4CCCC4)c(O)c3)nc(=O)c1-2	209
CN1CCc2cc[nH]c2C(c2ccccc2)C1 (centres undefined)	90 to 91
CCCC(C)(Sc1ccc(OCCn2c(CC)nc3ccccc3c2=O)cc1)C(=O)OCC (centres undefined)	148 to 150
Cc1cccc(C)c1OC(=O)c1ccccc1C(=O)Oc1c(C)cccc1C	174 to 176
Nc1nc(/C(=N/OCc2nnn[nH]2)C(=O)O)cs1	151 to 152
CC(=O)c1c(-c2ccsc2)sc(-c2ccncc2)c1C	98 to 100
CN(C)CCCC(=O)OC[C@@H]1CC(c2ccc(-c3ccc(N4C[C@H](Cn5ccnn5)OC4=O)cc3F)cn2)=NO1	148
O=C(C=Cc1ccccc1)Nc1ccc(C(c2ccc(Cl)cc2)n2ccnc2)cc1 (centres undefined)	244
CC(C)(Oc1ccc(Cl)cc1Cl)C(=O)C(Cc1ccc(Cl)cc1)n1cncn1 (centres undefined)	104 to 108
CCCCNc1nc(N)nc2c1ncn2C1C=CC(CO)C1 (centres undefined)	116 to 118
COc1ccc2ccc(NC(=O)c3c(F)cccc3F)nc2n1	219 to 220

SMILES	melting point [°C]
C=C1C[C@@H]2[C@H](CC[C@]3(C)C(=O)CC[C@@H]23)[C@@]2(C)CCC(=O)C=C12	155 to 160
Cn1cc(C(=O)O)c(=O)c2c3cc(N4CCC[C@H]4CNc4ccccc4)c(F)cc3ncc21	250
CC(C)(C)OC(=O)N[C@H]1CCCC[C@@H]1O	103 to 105
COc1ccc2c(c1)c(Cc1cc(=O)n(-c3cc(Cl)cc(Cl)c3)[nH]1)c(C)n2C(=O)c1ccc(Cl)cc1	104 to 105
O=C1c2cccc([N+](=O)[O-])c2C(=O)N1CCCCN1C(=O)c2cccc([N+](=O)[O-])c2C1=O	245
O=C1CCCOc2ccc(O)cc21	116 to 120
CN1CCCN(Cc2c(Cl)ccc(C(=O)C3=C(Sc4ccccc4)CCCC3=O)c2Cl)C1=O	140
c1cc(-c2ccncc2)c2sccc2c1	71 to 72
COc1ccc(Cl)nc1N	134 to 135
CC(C)c1nc(CCCOc2ncccc2CC(=O)O)c(Cc2ccc(Cl)cc2Cl)s1	106 to 107
N#Cc1ccc(-c2ccc(Cl)nn2)cc1	236 to 238
O=c1[nH]c2cc(Cl)ccc2c(O)c1-c1cccc(Cl)c1	> 300
NC(=O)c1c[nH]c2cc(Cl)c([N+](=O)[O-])cc2c1=O	298 to 300
COc1ccc(C(=O)NCCc2ccc(-c3ccc(OC(C)(C)C(=O)O)cc3)cc2)cc1	180 to 183
COc1cc([N+](=O)[O-])c(CCC(=O)O)c([N+](=O)[O-])c1O	195
CN1c2cccc3cccc(c23)N(CCCN2CC=C(c3ccccc3)CC2)S1(=O)=O	146
OCCCNc1cc(-c2ccnc(Nc3cccc(OC(F)(F)C(F)F)c3)n2)ccn1	141 to 145
O=S(=O)(Cl)c1ccccc1CCl	43 to 45
COc1ccc(OC)c(CC(=O)CN2N=C(c3ccc(Cl)cc3)c3ccccc3-n3c(C)nnc32)c1	217 to 218
O=c1ccc2c([N+](=O)[O-])cccc2n1O	205
COCc1nc2c(N)nc3cc(CCC(=O)N(C)C)ccc3c2n1CC(C)(C)O	142 to 145
CCN(C)C(=O)N1N=C2c3cc(F)ccc3OC[C@@H]2[C@@H]1c1ccccc1 (racemic)	133 to 137
Cc1ccc(Oc2ccc(C3=CC=CN4CCS(=O)(=O)N=C34)cc2)cc1	248 to 249

SMILES	melting point [°C]
O=C(NNc1ccc(NC(=S)Nc2ccccc2)cc1)c1ccccc1	149 to 151
CC(C)(C)OC(=O)N1CCc2c(n(CCOc3ccccc3)c3cc(Cl)cc(Cl)c23)CC1	132 to 133
COc1ccc(/C=C/c2nc3c([nH]2)c(=O)n(C)c(=O)n3C)c(OC)c1OC	265 to 266
CCOC(=O)c1nc(-c2ccccc2)nc2c1c1ccc(Cl)cc1n2C	139 to 140
Cc1c(NC(=O)CC(C)(C)C)c(C)c2c(c1-c1cccc(N(C)C)c1)OCC2c1ccc(C(C)C)cc1 (centres undefined)	197 to 199
OCCSCc1ccc(-c2ccc(CSCCO)cc2)cc1	152
CCCCc1nn(-c2cc(NC(=S)CCC)ccc2Cl)c(=O)n1Cc1ccc(-c2ccccc2S(=O)(=O)NC(=O)OC(C)(C)C)cc1F	115 to 117
NS(=O)(=O)c1ccc(NC(=O)CNc2ccccc2)cc1C(F)(F)F	172
CCOc1nc2cccc(C(=O)O)c2n1Cc1ccc(-c2ccccc2-c2nnn[nH]2)cc1	183 to 185
O=C(c1ccccc1)N1CCc2[nH]c3cccc(-c4ccccc4OC4CCCC4)c3c2CC1	187 to 189
Cc1ccc(C2SC(=O)NC2=O)cc1C (centres undefined)	121 to 122
COC(=O)C(CC(C)C)NC(=O)C(Cc1ccccc1)NC(=O)OCc1ccccc1 (stereo not drawn) (Cbz-Phe-Leu-OMe; configuration not given here)	125 to 126
Cc1cc(C#N)cc(C)c1OCCCc1ccc(CO)o1	37 to 38
CCOC(=O)CCc1cn(-c2ccc(N)cn2)nc1C(C)C	75 to 76
Cc1ncccc1C(C#N)N1CCN(C(=O)CC(NC(=O)c2ccc(OCc3ccc4ccccc4n3)cc2)c2ccccc2)CC1 (centres undefined)	104 to 110
CCOC(=O)CCc1cc2c(Nc3ccc4[nH]ccc4c3)c(C#N)cnc2s1	202
CC1(C(=O)c2c[nH]c3ncc(-c4cccc(CCCO)c4)nc23)CCCCC1	80 to 83
COc1ccc(-c2c(Cl)c(CN3CCCC3=O)nc3sc4c(c23)CCN(Cc2ccccc2)C4)cc1OC	139 to 140
CC(=O)Oc1c(C)sc2ccccc12	75 to 77
Clc1ccc2[nH]c3c(c2c1)CCN1CCCC=C31	114
COc1nc(NC(=O)NS(=O)(=O)c2ccccc2C(=O)OCCCl)nc(OC)n1	171 to 174
COc1ccc(NC(=O)Nc2ccc(Cl)c(Cl)c2)cc1NC(=S)Nc1cc(C(F)(F)F)cc(C(F)(F)F)c1	181
O=C(COc1ccccc1)NC1CNC1=O (centres undefined)	153 to 155
